According to article PMC5733478, “A Non-imaging High Throughput Approach to Chemical Library Screening at the Unmodified Adenosine-A3 Receptor in Living Cells” (Frontiers in Pharmacology, 2017):
Structures can show the parent of a compound that is named as a salt. Where two headings read alike, the source gives them in different places.

Molecular target: T1, human A3AR (Homo sapiens, UniProt P0DMS8)
T1 construct: expressed in transfected cells
T1 sequence (P0DMS8 1-318): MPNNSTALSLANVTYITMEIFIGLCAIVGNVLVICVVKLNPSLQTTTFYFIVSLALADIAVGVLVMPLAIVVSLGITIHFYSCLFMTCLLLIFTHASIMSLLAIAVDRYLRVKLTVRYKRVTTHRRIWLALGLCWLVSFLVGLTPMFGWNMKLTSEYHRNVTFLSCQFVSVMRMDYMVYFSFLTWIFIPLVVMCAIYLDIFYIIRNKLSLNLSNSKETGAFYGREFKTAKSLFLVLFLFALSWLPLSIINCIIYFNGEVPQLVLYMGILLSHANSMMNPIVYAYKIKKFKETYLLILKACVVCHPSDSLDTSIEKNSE
Experiment: LOPAC library primary screen: single concentration (10 μM) inhibition of 25 nM CA200645 binding, PHERAstar FS

[1] = % of control wells (1% DMSO and 25 nM CA200645), compounds at 10 µM, whole live cells expressing the A3AR, mean ± SD, three experiments in duplicate
[2] = compounds tested at 10 µM, % of control wells (1% DMSO and 25 nM CA200645), whole live cells expressing the A3AR, mean ± SD, three experiments in duplicate

Compound | % 25 nM CA200645 binding | further results
NCCSSCCN [Cystamine dihydrochloride] |  | % 25 nM CA200645 binding (% of control wells (1% DMSO and 25 nM CA200645), compounds at 10 µM, whole live cells expressing A3AR, mean ± SD, three experiments in duplicate): 96.6 ± 12.8%
Cc1nn(-c2ccccc2)c(C)c1/C=N/N1CCN(Cc2ccccc2)CC1 [SANT-1] | 82.1 ± 15.9% | 
CCCCCCN(CCCCCC)C(=O)Cc1c(-c2ccc(F)cc2)[nH]c2ccccc12 | 88.5 ± 10.2% | 
Oc1cc(O)cc(/C=C/c2ccc(O)c(O)c2)c1 [Piceatannol] | 79.1 ± 22.1% | 
CSc1nc(N)c2ncn([C@@H]3O[C@H](COP(=O)([O-])OP(=O)([O-])OP(=O)([O-])[O-])[C@@H](O)[C@H]3O)c2n1.[Na+].[Na+].[Na+].[Na+] | 99.0 ± 0.7% | 
O=C(Nc1nc2ccccc2n1CCN1CCOCC1)c1cccc([N+](=O)[O-])c1 [IRAK-1/4 Inhibitor I] | 61.3 ± 9.4% | 
CCCCCCCCc1ccc(-c2ccc(C(=O)O)cc2)cc1 [AC-55649] | 83.6 ± 13.2% | 
O=C1c2c(O)ccc(O)c2C(=O)c2c(NCCNCCO)ccc(NCCNCCO)c21 [Mitoxantrone] | 88.5 ± 12.7% | 
Ro 20-1724 | 108.8 ± 2.1% | 
CC(=O)[C@H]1CC[C@H]2[C@@H]3CC=C4C[C@@H](OS(=O)(=O)[O-])CC[C@]4(C)[C@H]3CC[C@]12C.[Na+] [Pregnenolone sulfate sodium] | 100.9 ± 23.1% | 
NC(C(=O)O)C(O)C(=O)O (racemic) [DL-threo-beta-hydroxyaspartic acid] | 97.0 ± 9.5% | 
O=c1ccc2c(OCCCCc3ccccc3)c3ccoc3cc2o1 [Psora-4] | 66.4 ± 9.2% | 
NC(=S)c1ccc[n+]([C@@H]2O[C@@H](COP(=O)([O-])OP(=O)(O)OC[C@H]3O[C@@H](n4cnc5c(N)ncnc54)C(OP(=O)([O-])O)[C@H]3O)C(O)C2O)c1.[Na+] (stereo partly shown) [Thio-NADP sodium] | 101.4 ± 10.4% | 
CCCCCCC(=O)OC1CC(C)(C)NC(C)(C)C1.Cl [TMPH hydrochloride] | 95.1 ± 13.7% | 
NS(=O)(=O)c1cc(C(=O)O)c(NCc2ccco2)cc1Cl [Furosemide] | 95.7 ± 5.9% | 
O=C(O)c1cc(=O)c2ccccc2[nH]1 [Kynurenic acid] |  | % 25 nM CA200645 binding [1]: 83.5 ± 10.7%
CCCCCCC(C(C)O)n1cnc2c(N)ncnc21.Cl (stereo not shown) | 80.7 ± 17.0% | 
Cc1[nH]c(=O)c(C#N)cc1-c1ccc2nccn2c1.Cl [Olprinone hydrochloride] | 100.7 ± 4.5% | 
CC(=O)C(C)=NO [2,3-Butanedione monoxime] | 109.9 ± 13.3% | 
COc1ccc(C2(O)OC(=O)C(c3ccc4c(c3)OCO4)=C2Cc2cc(OC)c(OC)c(OC)c2)cc1 (stereo not shown) [PD-156707] | 71.9 ± 8.4% | 
CC(C)Cn1c(=O)n(C)c(=O)c2[nH]cnc21 [3-Isobutyl-1-methylxanthine] | 98.0 ± 7.1% | 
COc1ccc2c(c1)c(CC(=O)O)c(C)n2C(=O)c1ccc(Cl)cc1 [Indomethacin] | 72.9 ± 18.3% | 
NCCCCCC(=O)O [6-Aminohexanoic acid] | 109.0 ± 9.6% | 
COc1ccc(C(=O)NCc2cccnc2)cc1C(=O)NCc1cccnc1 [Picotamide] | 109.0 ± 15.4% | 

Compound | % 25 nM CA200645 binding | further results
O=c1[nH]c2cc(C(F)(F)F)ccc2n1-c1cc(C(F)(F)F)ccc1O [NS-1619] | 94.9 ± 11.8% | 
NC(=O)c1cnccn1 [Pyrazinecarboxamide] | 88.9 ± 26.1% | 
COc1cc(C(O)CN)ccc1O.Cl (racemic) [(±)-Normetanephrine hydrochloride] |  | % 25 nM CA200645 binding (compounds tested at 10 µM, % of control wells (1% DMSO and 25 nM CA200645), […], mean ± SD, three experiments in duplicate): 95.5 ± 24.8%
CC1=C(C)C(=O)C(CCCCC#CCCCC#CCO)=C(C)C1=O [AA-861] |  | % 25 nM CA200645 binding [1]: 69.6 ± 8.4%
C/C=C(/C)C(=O)O[C@H]1C(C)=C2[C@H]([C@@H]1OC(=O)CCCCCCC)[C@@](C)(OC(C)=O)C[C@H](OC(=O)CCC)[C@@]1(O)[C@H]2OC(=O)[C@@]1(C)O [Thapsigargin] | 65.1 ± 10.7% | 
Cc1cc(NC(=O)Nc2ccc3c(ccn3C)c2)sn1 [SB 204741] | 88.1 ± 14.4% | 
O=[N+]([O-])c1ccc(CNc2nc(NCc3cccc(C(F)(F)F)c3)nc3nc[nH]c23)cc1 [TNP] | 61.8 ± 11.7% | 
NS(=O)(=O)c1cc2c(cc1Cl)NCNS2(=O)=O [Hydrochlorothiazide] | 95.6 ± 3.9% | 
CC(C)COC(=O)OCN1C(=O)CN(CCN2CC(=O)N(COC(=O)OCC(C)C)C(=O)C2)CC1=O [Sobuzoxane] | 111.5 ± 7.6% | 
CCNC(=O)N1CCN(CCCC(c2ccc(F)cc2)c2ccc(F)cc2)CC1 [Amperozide hydrochloride] |  | % 25 nM CA200645 binding [2]: 92.9 ± 0.6%
Nc1nccc2c1ncn2[C@@H]1O[C@H](CO)[C@@H](O)[C@H]1O [3-deazaadenosine] | 93.8 ± 11.9% | 
COc1cccc(OC)c1OCCNCC1COc2ccccc2O1.Cl (stereo not shown) [WB-4101 hydrochloride] | 76.0 ± 5.8% | 
Cl.Clc1ccc(N2CCN(Cc3c[nH]c4ncccc34)CC2)cc1 [L-745,870 hydrochloride] | 105.7 ± 4.1% | 
N#CC(C#N)=C(N)/C(C#N)=C/c1ccc(O)cc1 [Tyrphostin AG 112] | 102.8 ± 4.7% | 
CC(N)(Cc1ccc(O)c(O)c1)C(=O)O (racemic) | 86.8 ± 7.1% | 
COC[C@H]1OC(=O)c2coc3c2[C@@]1(C)C1=C(C3=O)[C@@H]2CCC(=O)[C@@]2(C)C[C@H]1OC(C)=O [Wortmannin from Penicillium funiculosum] | 82.6 ± 17.7% | 
Cl.Nc1ccn([C@@H]2O[C@H](CO)[C@@H](O)[C@@H]2O)c(=O)n1 | 98.1 ± 3.7% | 
Cn1ccnc1 [1-Methylimidazole] | 115.7 ± 16.4% | 
c1ccc(-c2ccccn2)nc1 [2,2'-Bipyridyl] | 105.2 ± 7.5% | 
Nc1nc(OCC2CCCCC2)c2[nH]cnc2n1 [NU2058] | 53.9 ± 7.1% | 
Cc1ccc(N(CC2=NCCN2)c2cccc(O)c2)cc1 [Phentolamine mesylate] | 98.9 ± 10.7% | 
C[N+](C)(C)CCO.[Br-] [Choline bromide] | 100.0 ± 6.6% | 
c1ccc2c(c1)CCCC2C1=NCCN1 (stereo not shown) [Tetrahydrozoline hydrochloride] | 98.2 ± 6.4% | 
NNc1nncc2ccccc12 [Hydralazine hydrochloride] | 100.6 ± 8.6% | 

Compound | % 25 nM CA200645 binding | further results
CN(C)CCCN1c2ccccc2CCc2ccc(Cl)cc21 [Clomipramine hydrochloride] | 99.4 ± 3.8% | 
CNC1(C)C2CCC(C2)C1(C)C (stereo not shown) [Mecamylamine hydrochloride] | 65.4 ± 10.0% | 
NC1=NCC2c3ccccc3Cc3ccccc3N12 (stereo not shown) [Epinastine hydrochloride] | 96.6 ± 14.2% | 
CNCCCC12CCC(c3ccccc31)c1ccccc12 [Maprotiline hydrochloride] | 93.0 ± 35.9% | 
CC1=NN=C(c2ccc(N)cc2)c2cc3c(cc2C1)OCO3.Cl [GYKI 52466 hydrochloride] | 78.2 ± 10.4% | 
Cl.c1ccc(CN(CC2=NCCN2)c2ccccc2)cc1 [Antozoline hydrochloride] | 97.0 ± 6.0% | 
Nc1ccc(S(=O)(=O)Nc2ccnn2-c2ccccc2)cc1 [Sulfaphenazole] |  | % 25 nM CA200645 binding [2]: 89.1 ± 34.9%
CN(C)C/C=C(/c1ccc(Br)cc1)c1cccnc1 [Zimelidine dihydrochloride] | 92.5 ± 9.4% | 
Cc1cccc(/C=C/c2ccccc2)n1 [SIB 1893] | 88.4 ± 9.6% | 
CNCC[C@@H](Oc1ccccc1C)c1ccccc1 [Tomoxetine] | 97.5 ± 8.3% | 
CCN(CC)CC#CCOC(=O)C(O)(c1ccccc1)C1CCCCC1 (stereo not shown) [Oxybutynin Chloride] | 101.0 ± 12.8% | 
NCC(CP(=O)(O)O)c1ccc(Cl)cc1 (stereo not shown) [Phaclofen] | 107.2 ± 18.9% | 
CCn1cc(C(=O)[O-])c(=O)c2ccc(C)nc21.[Na+] [Nalidixic acid sodium] | 106.1 ± 13.7% | 
CN(C)C(=O)N=NC(=O)N(C)C [N,N,N',N'-Tetramethylazodicarboxamide] | 95.9 ± 2.2% | 
CC(C)[C@@H]1CC[C@@H](C)C[C@@H]1P(=O)(c1ccccc1)c1ccccc1 [DPO-1] | 89.1 ± 3.8% | 
c1ccc(C2CC2)c(OCC2=NCCN2)c1 [Cirazoline hydrochloride] |  | % 25 nM CA200645 binding [2]: 105.5 ± 7.7%
Clc1ccc(C(c2ccccc2Cl)C(Cl)Cl)cc1 (stereo not shown) | 87.8 ± 23.1% | 
O=C(c1ccc(Cl)cc1)N1CCN(c2ccc([N+](=O)[O-])c3ncccc23)CC1 [CPNQ] | 83.4 ± 4.6% | 
COc1ccc(Cl)cc1C(=O)NCCc1ccc(S(=O)(=O)NC(=O)NC2CCCCC2)cc1 [Glybenclamide] | 92.8 ± 16.7% | 
Cc1[nH]c2ccc(O)cc2c1CCN.O=C(O)/C=C\C(=O)O [2-Methyl-5-hydroxytryptamine maleate] | 104.7 ± 14.7% | 
Cc1nc(N=Nc2cc(S(=O)(=O)[O-])c3cc([N+](=O)[O-])cc(S(=O)(=O)[O-])c3c2)c(COP(=O)([O-])[O-])c(C=O)c1O.[Na+].[Na+].[Na+].[Na+] [PPNDS tetrasodium] | 100.4 ± 12.5% | 
CN1C[C@H](CNC(=O)OCc2ccccc2)C[C@@H]2c3cccc4c3c(cn4C)C[C@H]21 [Metergoline] | 94.1 ± 8.5% | 
